Data: patent US20120225123A1, “Use of Synergistic Combinations of an Avermectin and an Antineoplastic Compounds for the Treatment of Hematological Malignancies” (UNIVERSITY HEALTH NETWORK, priority 2009, published 2012)

Columns and labels:
[1] = tested on: normal hematopoetic cells; experiment: Clonogenic (methylcellulose colony forming) assay, normal cells; assay type: cell-based, human; conditions: ivermectin 6 μM, n=3
Procedure: To assess clonogenic growth, primary AML cells or granulocyte colony-stimulating factor (G-CSF) mobilized PBSCs (4×10^5/mL) were treated with IVM or buffer control for 24 hours. After treatment, cells were washed and 10^5 cell/mL were plated in duplicate in MethoCult GF H4434 medium (StemCell Technologies, Vancouver, BC) containing 1% methycellulose in IMDM, 30% FCS, 1% bovine serum albumin, 3 U/mL of recombinant human erythropoietin, 10^−4 M of 2-mercaptoethanol, 2 mM of L-glutamine, 50 ng/mL of recombinant human stem cell factor, 10 ng/mL of GM-CSF, and 10 ng/mL of rh IL-3. Alternatively, primary cells were plated directly into MethoCult GF H4434 medium with ivermectin. Seven days (AML samples) or 14 days (normal PBCS) after plating, the number of colonies containing 10 or more cells for AML or over 100 cells for normal samples was counted as previously described.^14
Ivermectin was also evaluated in clonogenic assays in primary normal hematopoietic and AML cells. Ivermectin (6 μM) had minimal effects on the clonogenic growth of normal hematopoetic cells (n=3) with <15% reduction in clonogenic growth. In contrast, ivermectin reduced clonogenic growth by ≧40% in 3/6 primary AML samples (FIG. 1D). Similar effects were noted when primary cells were directly plated into clonogenic assays with ivermectin (FIG. 1G).

OCI-AML2 cells [2] = experiment: Cell death, viability and cell cycle in OCI-AML2 cells; assay type: cell-based, human
Procedure: Cell growth and viability was assessed by the MTS assay (Promega, Madison, Wis.) according to the manufacturer's instructions and as previously described.^12 Cell death was measured by Annexin V-fluoroscein isothiocyanate (FITC) and Propidium Iodide (PI; Biovision Research Products, Mountain View, Calif.) staining and flow cytometry according to the manufacturer's instructions and as previously described.^13 To identify CD34+ cells, a normal PBSC sample was co-stained with PE-anti-CD34+ (Beckman Coulter, Marseille France), and APC-anti-CD45 (Becton Dickenson, San Jose Calif.).
Cell cycle analysis was performed as described previously.^15 Briefly, cells were harvested, washed with cold PBS, and resuspended in 80% cold ethanol. Cells were then treated with 100 ng/mL DNase-free RNase A (Invitrogen) at 37° C. for 30 min, washed with cold PBS, and resuspended in PBS with 50 μg/mL propidium iodide. DNA content was analyzed by flow cytometry (FACSCalibur; Becton Dickinson). The percentage of cells in each phase of the cell cycle was calculated with FlowJo version 8.8 (TreeStar, Ashland, Oreg.).

DU145 cells = experiment: Intracellular chloride (SPQ) and cell size (forward light scatter), DU145; assay type: cell-based, human; conditions: 10 μM IVM, 2 hours
Procedure: Intracellular chloride concentration was measured using a fluorescent indicator for chloride, SPQ as previously described.^16 Upon binding halide ions like chloride, SPQ is quenched resulting in a decrease in fluorescence without a shift in wavelength. […] After 15 minutes of incubation with SPQ, cells were diluted 15:1 in HBSS and centrifuged. The supernatant was removed, cells were resuspended in 200 μl of fresh HBSS and incubated for 15 minutes in 37° C. to allow recovery from the hypotonic shock. Cells were then stained with propidium iodide and SPQ fluorescence in the PI negative cells was determined using an LSR-II flow cytometer (Beckton Dickonson, San Jose, Calif.) (excitation 351 nm, emission 485 nm). In parallel, changes in cell size were determined by measuring forward light scatter by flow cytometry. Results were analyzed with FlowJo version 8.8 (TreeStar, Ashland, Oreg.).

[3] = tested on: OCI-AML2, K562 and MDAY-D2 leukemia cells in NOD/SCID mice; experiment: Mouse models of leukemia, subcutaneous tumors, oral ivermectin; assay type: in vivo
Procedure: MDAY-D2 murine leukemia cells, and K562 and OCI-AML2 human leukemia cells (2.5×10^5) were injected subcutaneously into both flanks of sub-lethally irradiated (3.5 Gy) NOD/SCID mice (Ontario Cancer
Institute, Toronto, ON). Four (OCI-AML2), five (MDAY-D2), or seven (K562) days after injection, once tumors were palpable, mice were then treated daily for 10 days (K562) or treated with 8 doses over 10 days (OCI-AML2) with IVM (3 mg/kg) by oral gavage in water or vehicle control (n=10 per group). […] Tumor volume (tumor length x width^2×0.5236) was measured three times a week using calipers. Fourteen (MDAY-D2), 15 (OCI-AML2) or 17 (K562) days after injection of cells, mice were sacrificed, tumors excised and the volume and weight of the tumors were measured.
Given the effects of IVM as a potential anti-leukemic agent, IVM was evaluated in mouse models of leukemia. Human leukemia (OCI-AML2 and K562) and murine leukemia (MDAY-D2) cells (MDAY-D2, OCI-AML2 and K562) were injected subcutaneously into the flank of NOD/SCID mice. Four (OCI-AML2), five (MDAY-D2), or seven (K562) days after injection, once tumors were palpable, mice were then treated daily for 10 days (K562) or treated with 8 doses over 10 days (OCI-AML2) with IVM (3 mg/kg) by oral gavage in water or vehicle control (n=10 per group). […] Tumor volume and weight was measured over time.

OCI-AML2 cells [4] = experiment: Plasma membrane potential, DiBAC4(3) staining, OCI-AML2; assay type: cell-based, human; conditions: for plasma membrane polarization: 5 hours
Procedure: Plasma membrane potential was measured as previously described.^18 Briefly, cells treated with IVM or buffer control in RPM1, chloride replete medium (140 mM sodium chloride, 5 mM potassium chloride, 1 mM magnesium sulfate, 1.8 mM calcium acetate, 10 mM glucose, 10 mM HEPES and 0.1% (wt/v) BSA), or chloride free media where equimolar gluconate salts of sodium and potassium replaced the sodium chloride in the chloride replete medium. After incubation, cells were stained with DiBAC4(3) (final concentration 30 nM) and fluorescence determined by flow cytometry (BD FACS Canto, Becton Dickinson, San Jose, Calif.) (excitation=488 nm, emission=516 nm) Analysis was conducted using FACSDiva Software (BD Biosciences). Calibration curves were prepared using phosphate buffers with varying potassium ion concentrations as previously described.^18

[5] = cited from earlier work
monkeys = conditions: oral; cited from earlier work
[6] = healthy male volunteers, 14 mg capsule of radiolabelled ivermectin
[7] = onchocerciasis patients, single oral dose of 150 μg/kg

ivermectin
reduction in clonogenic growth [1]: < 15%
cell death (OCI-AML2 cells [2]; 24 hours of treatment): induced cell death
cell cycle (OCI-AML2 cells [2]; times and concentrations that preceded cell death, PI DNA content): induced G2 cell cycle arrest
chloride influx (DU145 cells): chloride influx was not observed
tolerability ([3]; MDAY-D2 mice, dosage escalated 3 to 6 mg/kg): well tolerated
decrease in tumor weight and volume compared to buffer control ([3]; oral gavage 3 mg/kg (MDAY-D2 escalated to 6 mg/kg), all 3 models, p<0.05): up to 70%
gross organ toxicity ([3]; oral ivermectin, all 3 models): without any gross organ toxicity
plasma membrane polarization (OCI-AML2 cells [4]; chloride deplete buffer): caused plasma membrane depolarization
plasma membrane polarization (OCI-AML2 cells [4]; chloride replete buffer): induced plasma membrane hyperpolarization
plasma membrane potential (OCI-AML2 cells [4]; RPMI medium, as early as after 1 hour of treatment): induced membrane hyperpolarization in a dose dependent manner
time over which IVM and/or metabolites are excreted in the feces ([5]; estimated): ~12 days
half-life [5, 6]: 11.8 h
mean Tmax [5, 6]: 6 h
administered dose excreted in the urine ([5]; in vivo): < 1%
area under the curve over 48 hours [5, 7]: 2852 ng·h/mL
maximum plasma concentration [5, 7]: 52.0 ng/mL
time to maximum plasma concentration [5, 7]: 5.2 h
LD50 (monkeys): above 24 mg/kg
